Test system: C. difficile
Experiment: Mouse model of C. difficile infection, bacterial compositions given by oral gavage on day −1 (Example 1)
Assay type: in vivo, mice
Conditions: positive control, oral gavage on days −1 to 4

Compound: CN[C@H](CC(C)C)C(=O)N[C@H]1C(=O)N[C@@H](CC(N)=O)C(=O)N[C@H]2C(=O)N[C@H]3C(=O)N[C@H](C(=O)N[C@H](C(=O)O)c4cc(O)cc(O)c4-c4cc3ccc4O)[C@H](O)c3ccc(c(Cl)c3)Oc3cc2cc(c3O[C@@H]2O[C@H](CO)[C@@H](O)[C@H](O)[C@H]2O[C@H]2C[C@](C)(N)[C@H](O)[C@H](C)O2)Oc2ccc(cc2Cl)[C@H]1O [Vancomycin]
- weight loss, clinical signs of disease, and C. difficile shedding (in words): protects against these outcomes

Source: patent US10973861B2, “Compositions and methods” (priority 2013, dated 2021)
